Experimental data as given in US5593982A, “Cyclopentanperhydrophenanthren-17β-(3-furyl)-3-derivatives and pharmaceutical compositions comprising same for the treatment of cardiovascular disorders” (Sigma-Tau Industrie Farmaceutiche Riunite S.p.A., priority 1992, dated 1997).
Read-outs that look alike come from different tables or passages of the source.

Legend:
[1] = target: T1, Na^+,K^+ -ATPase receptor (Canis lupus familiaris, UniProt P50997); assay: displacement of the specific 3H-ouabain binding from the purified Na+,K+-ATPase receptor
T1 construct: from tissue; mammalian kidney outer medulla by the cited Jorgensen 1974 method (own knowledge)
Text: (§1) To test the affinity for the receptor site of the Na^+,K^+ -ATPase and the agonist or antagonist activity on the enzyme, the following tests were used: a) displacement of the specific ^3 H-ouabain binding from the Na^+,K^+ -ATPase receptor purified according to Jorghensen (Jorghensen P., BBA, 1974, 356, 36) and Erdmann (Erdmann E. et al., Arzneim. Forsh., 1984, 34, 1314); b) inhibition of the activity of the purified Na^+,K^+ -ATPase measured as % of hydrolysis of ^32 P-ATP in presence and in absence of the tested compound (Mall F. et al., Biochem. Pharmacol., 1984, 33, 47).

[2] = target: T2, purified Na^+,K^+ -ATPase (Canis lupus familiaris, UniProt P50997); assay: inhibition of the activity of the purified Na+,K+-ATPase measured as % of hydrolysis of 32P-ATP; format: biochemical
T2 construct: from tissue; mammalian kidney outer medulla by the cited Jorgensen 1974 method (own knowledge)
Text: as §1

[3] = tested on: hypertensive MHS rats; assay: systolic blood pressure and heart rate in hypertensive MHS rats (indirect tail-cuff method); format: in vivo, rat (MHS); conditions: 20 mg/Kg/os daily for ten days in METHOCEL 0.5% w/v, 7 rats; for SBP (systolic blood pressure): controls 171 ± 4.5; for HR (heart rate): controls 384 ± 11.0
Description: The ability of these compounds to lower blood pressure in adult hypertensive MHS rats was tested by the following method: systolic blood pressure (SBP) and heart rate (HR) were measured by an indirect tail-cuff method in three-month old hypertensive MHS rats before beginning treatment (basal values). The rats were then subdivided in two groups of 7 animals each, one receiving the compound and the other, the control group, receiving only the vehicle. The compound, suspended in METHOCEL® 0.5% (w/v), for ten days, was administered daily by mouth. SBP and HR were measured daily 6 and 24 hours after the treatment. When ten-day treatment washout had been under way for at least two days, whether the treatment maintains SBP low or re-establish the basal values was verified. The affinity and the inhibitory activity of some ethers and of the reference compound (II-a) in the two tests are shown in the following table: […]

[4] = hydrolysis of 32P-ATP, purified Na+,K+-ATPase, read-out: Inhibitory Activity log IC50 (converted)
[5] = displacement of specific 3H-ouabain binding, purified Na+,K+-ATPase, read-out: Binding 3H-Ouab. Displacement log IC50 (converted)

| SMILES | IC50 [1] [nM] | IC50 [2, 4] [nM] | SBP (systolic blood pressure) [3] [mm Hg] | HR (heart rate) [3] [beats/min.] | IC50 [2] [nM] | IC50 [1, 5] [nM] |
| --- | --- | --- | --- | --- | --- | --- |
| C[C@]12CC[C@H](OCCCN)C[C@H]1CC[C@@H]1[C@@H]2CC[C@]2(C)[C@@H](c3ccoc3)CC[C@]12O [Comp. I-ab, 3β-(3-Aminopropoxy)-17β-(3-furyl)-5β-androstan-14β-ol] | 126 | 1260 | 157 ± 4.9 | 371 ± 10.0 | – | – |
| C[C@]12CC[C@H](OCCCN3CCCC3)C[C@H]1CC[C@@H]1[C@@H]2CC[C@]2(C)[C@@H](c3ccoc3)CC[C@]12O [Comp. I-ae] | 126 | – | 154 ± 6.3 | 395 ± 8.7 | 794 | – |
| C[C@]12CC[C@H](OCCNCCN3CCCC3)C[C@H]1CC[C@@H]1[C@@H]2CC[C@]2(C)[C@@H](c3ccoc3)CC[C@]12O [Comp. I-ag, 3β-(2-(2-(1-Pyrrolidinyl)ethylamino)ethoxy)-17β-(3-furyl)-5β-androstan-14β-ol] | 158 | – | 162 ± 5.0 | 377 ± 9.0 | 1580 | – |
| C[C@]12CC[C@H](OCCSCCN3CCCC3)C[C@H]1CC[C@@H]1[C@@H]2CC[C@]2(C)[C@@H](c3ccoc3)CC[C@]12O [Comp. I-ai, 3β-(2-(2-(1-Pyrrolidinyl)ethylthio)ethoxy)-17β-(3-furyl)-5β-androstan-14β-ol] | 200 | – | 160 ± 4.7 | 390 ± 8.9 | 631 | – |
| C[C@]12CC[C@H](OCCNC(=N)N)C[C@H]1CC[C@@H]1[C@@H]2CC[C@]2(C)[C@@H](c3ccoc3)CC[C@]12O [Comp. I-al, 3β-(2-Guanidinoethoxy)-17β-(3-furyl)-5β-androstan-14β-ol nitrate] | 126 | – | 159 ± 5.0 | 393 ± 9.0 | 1580 | – |
| C[C@]12CC[C@H](SCCN)C[C@H]1CC[C@@H]1[C@@H]2CC[C@]2(C)[C@@H](c3ccoc3)CC[C@]12O [Comp. I-bv, 3β-(2-Aminoethylthio)-17β-(3-furyl)-5β-androstan-14β-oloxalate] | – | – | 161 ± 4.2 | 384 ± 6.7 | 2000 | 501 |
| C[C@]12CC[C@H](SCCN3CCCC3)C[C@H]1CC[C@@H]1[C@@H]2CC[C@]2(C)[C@@H](c3ccoc3)CC[C@]12O [Comp. I-bw, 3β-(2-(1-Pyrrolidinyl)ethylthio)-17β-(3-furyl)-5β-androstan-14β-ol] | – | 3980 | 157 ± 4.3 | 392 ± 10.0 | – | 794 |
| C[C@]12CC[C@H](SCCOCCN3CCCC3)C[C@H]1CC[C@@H]1[C@@H]2CC[C@]2(C)[C@@H](c3ccoc3)CC[C@]12O [Comp. I-by, 3β-(2-(2-(1-Pyrrolidinyl)ethoxy)ethylthio)-17β-(3-furyl)-5β-androstan-14β-ol] | 158 | – | 154 ± 6.3 | 395 ± 8.7 | 1000 | – |
| C[C@]12CC[C@H](O)C[C@H]1CC[C@@H]1[C@@H]2CC[C@]2(C)[C@@H](c3ccoc3)CC[C@]12O [Comp. II-a, 17β-(3-furyl)-5β-androstane-3β,14β-diol, reference compound] | – | – | 175 ± 4.1 | 382 ± 9.0 | – | – |
